Values of other authors, collected in paper PMC10925453, “Selective Bias Virtual Screening for Discovery of Promising Antimalarial Candidates targeting Plasmodium N-Myristoyltransferase” (Research Square, 2024).

Tests used:
Plasmodium NMT = system: Plasmodium NMT; design: method as in earlier work; settings: ligand of the PDB structure, activity against Plasmodium NMT; ref PDB
human isoform 1 = settings: no reference given

Cc1nn(C)c(C)c1Cc1nnc(-c2sc3ccccc3c2OC2CCNCC2)o1 [2YNE, 2-(3-piperidin-4-yloxy-1-benzothiophen-2-yl)-5-[(1,3,5-trimethylpyrazol-4-yl)methyl]-1,3,4-oxadiazole]
Ki (Plasmodium NMT): 2.7 nM | IC50 (human isoform 1): 60 ± 3 nM

Cc1nn(C)c(C)c1NS(=O)(=O)c1c(Cl)cc(-c2ccnc(N3CCNCC3)c2)cc1Cl [2YND]
Ki (Plasmodium NMT): 32 nM
